Patent US9011833B2, “Vitamin E formulations of sulfamide NS3 inhibitors” (priority 2010, dated 2015)
Values after ≈ are worked out from the molar mass of the structure shown.

What was measured:
[1] = physchem; conditions: aqueous buffer, Compound 34 solubility
[2] = Solubilization of Compound 34 in microemulsion formulation; format: physicochemical; conditions: microemulsion preconcentrate or microemulsion diluted with water
Source text: Microemulsion preconcentrate or diluted microemulsion with water is used. The formulation solubilizes the Compound 34 up to 15% by wt. The specific components for formulation are: […]

[3] = in vivo; design: species or system sprague dowley rats; conditions: Sprague-Dawley, rat

## CC[C@@H]1C[C@]1(NC(=O)[C@@H]1C[C@@]2(CN1C(=O)[C@@H](NC(=O)[C@@H](NC(=O)[C@@H]1CCCCN1C(C)C)C1CCCCC1)C(C)(C)C)C(C)(C)C21CCC1)C(=O)NS(=O)(=O)N1CCCC1 [Compound 34, (5R,8S)-7-[(2S)-2-{[(2S)-2-cyclohexyl-2-({[(2S)-1-isopropylpiperidin-2-yl]carbonyl}amino)acetyl]a-mino}-3,3-dimethylbutanoyl]-N-{(1R,2R)-2-ethyl-1-[(pyrrolidin-1-ylsulfonyl)carbamoyl]cyclo-propyl}-10,10-dimethyl-7-azadispiro[3.0.4.1]decane-8-carboxamide]
[1]
  solubility: 30 µg/mL (≈ 35 µM)
[2]
  solubilized in microemulsion formulation: up to 15 % by wt
[3]
  bioavailability: 80 to 95%
